The text below walks through data of paper PMC7508628, “Targeting the Respiratory Syncytial Virus N^0-P Complex with Constrained α-Helical Peptides in Cells and Mice” (Antimicrobial Agents and Chemotherapy, 2020).

The structures appear in SMILES notation. Where a SMILES comes first, the peptide text is derived from it. Bridges are numbered along the chain shown (N, C = ends). [ ]: non-standard residue; d: D form. R8 = C=CCCCCCC[C@@](C)(N)C(=O)O; R5 = C=CCCC[C@@](C)(N)C(=O)O; S5 = C=CCCC[C@](C)(N)C(=O)O A value given as a limit tells only on which side of the number the result lay.

A short description of series [1]: circular dichroism. To be noted: 10 mM phosphate; pH 7.5; 25 °C; 50 uM.
For series [2], the target named is monomeric N protein (N^mono), recombinant N^K170A/R185A (Human respiratory syncytial virus A, UniProt P03418, K170A/R185A). The experiment in a line: Fluorescence polarization competition assay: displacement of FAM–P(1–40) from monomeric N. The class given is binding. Conditions: FP competition with FAM–P(1–40) probe. On the technique in general: Polarisation of emitted light reports the rotation of a fluorescent probe.

Series [3] in a line: Circular dichroism spectroscopy, α-helical content. The class given is physicochemical. To be noted: CD, 10 mM phosphate buffer pH 7.5, 50 μM peptide, 25°C, calculated from ellipticity at 222 nm; average of three measurements. Here is the method:
The α-helical stabilization appeared to be higher for the i, i + 7 staples overall.
The circular dichroism spectra were acquired on a Chirascan spectropolarimeter. The samples were prepared in 10 mM phosphate buffer, pH 7.5, at a peptide concentration of 50 μM. Data were recorded at 25°C by step scan from 180 nm to 260 nm in a 0.5-mm-pathlength quartz cell using 0.2-nm-wavelength increments, a 1-nm bandwidth, and a response time of 1 s. Each spectrum was an average of three measurements and was subtracted from the buffer baseline. The data were converted to per residue molar ellipticity units (θ; in degrees · square centimeters · decimoles^−1 · number of residues^−1) and smoothed using Igor Pro software. Percent helicity was calculated as follows: (100 × CD222)/(C × N × {40,000 × [1 − (2.5/N)]}), where CD222 is the molar ellipticity (θ) at 222 nm (in millidegrees), N is the number of amino acids in the peptide, and C is the peptide molar concentration (in moles per liter).

For series [4], the system named is rHRSV-mCherry. Conditions: read-out: EC50 (half-maximal response inhibitory concentration), inhibition of RSV infection; HEp-2 cells, MOI 0.2, peptides added after 2 h infection, mCherry fluorescence at 48 h postinfection; duplicates.
For series [5], the system named is HEp-2 cells. The experiment in a line: HEp-2 cell viability (CellTiter-Glo luminescent cell viability assay). Conditions: peptide alone at 50 μM; duplicates.
Description: (B) HEp-2 cell viability upon treatment with peptides alone at peptide concentrations of 50, 25, and 12.5 μM. Error bars are standard deviations from duplicates. Data are representative of those from two independent experiments.
Cytotoxicity assays were done with the CellTiter-Glo luminescent cell viability assay (Promega). Each experiment was performed in duplicate and repeated at least twice.

Sequence of monomeric N protein (N^mono), recombinant N^K170A/R185A (P03418 whole entry K170A/R185A, looked up): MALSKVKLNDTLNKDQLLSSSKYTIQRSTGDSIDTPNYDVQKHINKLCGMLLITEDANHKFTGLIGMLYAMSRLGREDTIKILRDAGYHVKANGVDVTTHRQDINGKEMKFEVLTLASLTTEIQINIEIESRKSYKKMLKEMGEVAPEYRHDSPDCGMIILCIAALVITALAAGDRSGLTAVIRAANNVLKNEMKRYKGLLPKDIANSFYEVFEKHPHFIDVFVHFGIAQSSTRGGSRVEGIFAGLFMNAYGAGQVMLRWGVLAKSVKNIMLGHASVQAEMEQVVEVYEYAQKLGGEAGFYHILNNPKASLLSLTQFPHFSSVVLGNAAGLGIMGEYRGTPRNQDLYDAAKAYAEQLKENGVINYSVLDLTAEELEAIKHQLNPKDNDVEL

For the molecule `CC[C@H](C)[C@H](NC(=O)[C@H](CO)NC(=O)[C@H](CCC(=O)O)NC(=O)[C@H](CC(C)C)NC(=O)[C@H](Cc1ccccc1)NC(=O)[C@H](CCCCN)NC(=O)[C@]1(C)CCCC=CCCC[C@@](C)(NC(=O)[C@H](CC(N)=O)NC(=O)[C@H](C)NC(=O)[C@H](CC(=O)O)NC(=O)[C@H](CCC(=O)O)NC(C)=O)C(=O)N[C@@H](CCCCN)C(=O)N[C@@H](C)C(=O)N1)C(=O)N[C@@H](CCCCN)C(=O)NCC(=O)N[C@@H](CCCCN)C(=O)N[C@@H](Cc1ccccc1)C(=O)N[C@@H](C)C(=O)N[C@@H](CO)C(N)=O` [1a] (Ac-EDAN[R5]KA[S5]KFLESIKGKFAS-NH2; staple 5-8), the helicity in series [1] is 5.5%. Also, the “Competitive binding to N^mono (in words)” value in series [2] was “detrimental to the binding”. Besides, in series [3], the “% helicity” value was 5.5%.

In turn, `CC(=O)N[C@@H](CCC(=O)O)C(=O)N[C@@H](CC(=O)O)C(=O)N[C@@H](C)C(=O)N[C@@H](CC(N)=O)C(=O)N[C@@H](CC(N)=O)C(=O)N[C@@H](CCCCN)C(=O)N[C@@H](C)C(=O)N[C@H](C(=O)N[C@@H](CCCCN)C(=O)N[C@@H](Cc1ccccc1)C(=O)N[C@]1(C)CCCC=CCCC[C@@](C)(C(=O)N[C@@H](CCCCN)C(=O)NCC(=O)N[C@@H](CCCCN)C(=O)N[C@@H](Cc2ccccc2)C(=O)N[C@@H](C)C(=O)N[C@@H](CO)C(N)=O)NC(=O)[C@H](CO)NC(=O)[C@H](CCC(=O)O)NC1=O)[C@@H](C)O` [1d] (Ac-EDANNKATKF[R5]ES[S5]KGKFAS-NH2; staple 11-14) returned a helicity in series [1] of 24.2%. Moreover, the “Competitive binding to N^mono (in words)” value in series [2] is on record as “no competition could be observed”. In series [3], the “% helicity” value was 24.2%.

In the case of `CC(=O)N[C@@H](CCC(=O)O)C(=O)N[C@@H](CC(=O)O)C(=O)N[C@@H](C)C(=O)N[C@@H](CC(N)=O)C(=O)N[C@@H](CC(N)=O)C(=O)N[C@@H](CCCCN)C(=O)N[C@@H](C)C(=O)N[C@H](C(=O)N[C@@H](CCCCN)C(=O)N[C@@]1(C)CCCC=CCCC[C@@](C)(C(=O)N[C@@H](CCCCN)C(=O)NCC(=O)N[C@@H](CCCCN)C(=O)N[C@@H](Cc2ccccc2)C(=O)N[C@@H](C)C(=O)N[C@@H](CO)C(N)=O)NC(=O)[C@H](CO)NC(=O)[C@H](CCC(=O)O)NC(=O)[C@H](CC(C)C)NC1=O)[C@@H](C)O` [2d] (Ac-EDANNKATK[S5]LES[S5]KGKFAS-NH2; staple 10-14), the helicity in series [1] turned out to be 10.1%. Further, the “Competitive binding to N^mono (in words)” value in series [2] is recorded as “no competition could be observed”. In addition, in series [3], the “% helicity” value was 10.1%.

`CC[C@H](C)[C@H](NC(=O)[C@]1(C)CCCC=CCCCCCC[C@@](C)(NC(=O)[C@H](CC(N)=O)NC(=O)[C@H](CC(N)=O)NC(=O)[C@H](C)NC(=O)[C@]2(C)CCCC=CCCC[C@@](C)(NC(=O)[C@H](Cc3ccccc3)NC(=O)[C@H](CCC(=O)O)NC(C)=O)C(=O)NCC(=O)N[C@@H](CCC(=O)O)C(=O)N2)C(=O)N[C@@H](C)C(=O)N[C@@H]([C@@H](C)O)C(=O)N[C@@H](CCCCN)C(=O)N[C@@H](Cc2ccccc2)C(=O)N[C@@H](CC(C)C)C(=O)N[C@@H](CCC(=O)O)C(=O)N1)C(=O)N[C@@H](CCCCN)C(=O)NCC(=O)N[C@@H](CCCCN)C(=O)N[C@@H](Cc1ccccc1)C(=O)N[C@@H](C)C(=O)N[C@@H](CO)C(N)=O` [4a3b] (Ac-EF[R5]GE[S5]ANN[R8]ATKFLE[S5]IKGKFAS-NH2; staple 3-6, 10-17): in series [2], the “Competitive binding to N^mono (in words)” value is “inactive”. Besides, the “% helicity” value in series [3] is reported as 73.2%. For the same molecule, in series [4], the EC50 was found to be 14.6 ± 13.9 µM.

Take `CC[C@H](C)[C@H](NC(=O)[C@]1(C)CCCC=CCCCCCC[C@@](C)(NC(=O)[C@H](CCC(=O)O)NC(=O)[C@H](CC(N)=O)NC(=O)[C@H](C)NC(=O)[C@]2(C)CCCC=CCCC[C@@](C)(NC(=O)[C@H](Cc3ccccc3)NC(=O)[C@H](CCC(=O)O)NC(C)=O)C(=O)NCC(=O)N[C@@H](CCC(=O)O)C(=O)N2)C(=O)N[C@@H](C)C(=O)N[C@@H]([C@@H](C)O)C(=O)N[C@@H](CCCCN)C(=O)N[C@@H](Cc2ccccc2)C(=O)N[C@@H](CC(C)C)C(=O)N[C@@H](C)C(=O)N1)C(=O)N[C@@H](CCCCN)C(=O)NCC(=O)N[C@@H](CCCCN)C(=O)N[C@@H](Cc1ccccc1)C(=O)N[C@@H](C)C(=O)N[C@@H](CO)C(N)=O` [5b] (Ac-EF[R5]GE[S5]ANE[R8]ATKFLA[S5]IKGKFAS-NH2; staple 3-6, 10-17): the “% helicity” value in series [3] is above 100%. In addition, the EC50 in series [4] worked out at 16.9 ± 5.1 µM. For the same molecule, in series [5], the “Toxicity for uninfected HEp-2 cells (cell viability)” value is listed as “some toxicity”.

In the case of `CC[C@H](C)[C@H](NC(=O)[C@]1(C)CCCC=CCCCCCC[C@@](C)(NC(=O)[C@H](CC(N)=O)NC(=O)[C@H](CC(N)=O)NC(=O)[C@H](C)NC(=O)[C@]2(C)CCCC=CCCC[C@@](C)(NC(=O)[C@H](Cc3ccccc3)NC(=O)[C@H](CCC(=O)O)NC(C)=O)C(=O)NCC(=O)N[C@@H](CCC(=O)O)C(=O)N2)C(=O)N[C@@H](C)C(=O)N[C@@H]([C@@H](C)O)C(=O)N[C@@H](CCC(=O)O)C(=O)N[C@@H](Cc2ccccc2)C(=O)N[C@@H](CC(C)C)C(=O)N[C@@H](CCCCN)C(=O)N1)C(=O)N[C@@H](CCCCN)C(=O)NCC(=O)N[C@@H](CCCCN)C(=O)N[C@@H](Cc1ccccc1)C(=O)N[C@@H](C)C(=O)N[C@@H](CO)C(N)=O` [5c] (Ac-EF[R5]GE[S5]ANN[R8]ATEFLK[S5]IKGKFAS-NH2; staple 3-6, 10-17), in series [3], the “% helicity” value is on record as 79.7%. Also, the EC50 in series [4] was found to be 18.5 ± 10.6 µM. Moreover, the “Toxicity for uninfected HEp-2 cells (cell viability)” value in series [5] is “no toxicity”.

As to `CC[C@H](C)[C@H](NC(=O)[C@]1(C)CCCC=CCCCCCC[C@@](C)(NC(=O)[C@H](CC(N)=O)NC(=O)[C@H](CC(N)=O)NC(=O)[C@H](C)NC(=O)[C@H](CC(=O)O)NC(=O)[C@H](CCC(=O)O)NC(=O)CNC(=O)[C@H](Cc2c[nH]cn2)NC(=O)[C@H](Cc2ccccc2)NC(=O)[C@H](CCC(=O)O)NC(C)=O)C(=O)N[C@@H](C)C(=O)N[C@@H]([C@@H](C)O)C(=O)N[C@@H](CCCCN)C(=O)N[C@@H](Cc2ccccc2)C(=O)N[C@@H](CC(C)C)C(=O)N[C@@H](CCC(=O)O)C(=O)N1)C(=O)N[C@@H](CCCCN)C(=O)N[C@]1(C)CCCC=CCCC[C@@](C)(C(=O)N[C@@H](CO)C(N)=O)NC(=O)[C@H](Cc2ccccc2)NC(=O)[C@H](CCCCN)NC1=O` [3b1f] (Ac-EFHGEDANN[R8]ATKFLE[S5]IK[R5]KF[S5]S-NH2; staple 10-17, 20-23), in series [3], the “% helicity” value is listed as 46.6%. The EC50 in series [4] is above 100 µM.

For the molecule `CC[C@H](C)[C@H](NC(=O)[C@H](CO)NC(=O)[C@H](CCC(=O)O)NC(=O)[C@H](CC(C)C)NC(=O)[C@H](Cc1ccccc1)NC(=O)[C@H](CCCCN)NC(=O)[C@@H](NC(=O)[C@H](C)NC(=O)[C@H](CCCCN)NC(=O)[C@H](CC(N)=O)NC(=O)[C@H](CC(N)=O)NC(=O)[C@H](C)NC(=O)[C@H](CC(=O)O)NC(=O)[C@H](CCC(=O)O)NC(C)=O)[C@@H](C)O)C(=O)N[C@@H](CCCCN)C(=O)NCC(=O)N[C@]1(C)CCCC=CCCC[C@@](C)(C(N)=O)NC(=O)[C@H](C)NC(=O)[C@H](Cc2ccccc2)NC1=O` [1g] (Ac-EDANNKATKFLESIKG[R5]FA[S5]-NH2; staple 17-20), the helicity in series [1] stood at 25.5%. The “Competitive binding to N^mono (in words)” value in series [2] was “detrimental to the binding”. For the same molecule, the “% helicity” value in series [3] is on record as 25.5%.
